Data taken from patent US20240166641A1, “HETEROCYCLES AND USES THEREOF” (Kumquat Biosciences Inc., priority 2021, published 2024).

How the values were obtained:
PTPN2 = molecular target: T1, PTPN2 (Homo sapiens, UniProt P17706); test: Phosphatase activity assay (Bio-Biochem-DiFMUP), PTPN2; type: biochemical; details: DiFMUP substrate, room temperature
T1 sequence (P17706 1-415): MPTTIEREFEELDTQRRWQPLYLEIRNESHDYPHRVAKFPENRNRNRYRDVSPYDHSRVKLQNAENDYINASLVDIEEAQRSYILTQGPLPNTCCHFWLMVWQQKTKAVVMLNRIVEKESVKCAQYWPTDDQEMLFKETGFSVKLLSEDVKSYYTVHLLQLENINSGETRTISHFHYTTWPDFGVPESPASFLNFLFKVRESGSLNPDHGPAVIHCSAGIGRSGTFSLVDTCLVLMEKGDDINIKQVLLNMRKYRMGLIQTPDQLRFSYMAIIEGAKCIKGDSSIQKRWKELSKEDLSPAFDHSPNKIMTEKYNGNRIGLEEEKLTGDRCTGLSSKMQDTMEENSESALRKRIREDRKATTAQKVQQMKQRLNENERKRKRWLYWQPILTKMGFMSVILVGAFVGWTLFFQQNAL
Procedure, shortened: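 Buffer was 50 mM Bis-Tris pH 6.3, 2 mM EDTA, 5 mM DMH, with 10 μM FDP or DiFMUP substrate, enzyme added last, at room temperature. Fluorescent product was read continuously for 15–30 min (DiFMU ex 360/em 450 nm; FMP ex 440/em 530 nm). Initial rates against 10-point inhibitor series were fitted with a 4-parameter equation to give IC50.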

[1] = test system: B16F10 mouse melanoma cells; test: MHC expression associated with IFNγ signaling, flow cytometry; type: cell-based; details: B16-F10, 3 uM compound, 48 hours, normalized to DMSO/with IFNγ control, read-out: % MHC in cells treated with Compound at 3 uM relative to negative control (DMSO)
Protocol: B16F10 mouse melanoma cells (ATCC Cat #CRL-6475, Manassas, VA) are seeded at approximately a density of 500 cells per well in a 384-well clear bottom plate (Corning Cat #3765, Corning, 5 NY) in 25 μL total volume of DMEM+10% FBS (Sigma Cat #D6429 and Sigma Cat #F4135, St. Louis, MO). Cells are allowed to adhere overnight at 37° C.+5% CO2. On the following day, 12.5 μL of mouse IFNγ (RD systems Cat #485-MI/CF, Minneapolis, MN) is added to half of the plate (columns 13-24) at a concentration of 2 ng/mL for a final assay concentration of 0.5 ng/mL of IFNγ. Media only (12.5 μL of DMEM+10% FBS) is added to the remainder of the 10 plate (columns 1-12). Next, compounds resuspended in DMSO (Sigma Cat #D2650) at 100 mM are diluted in semi-log dilutions in DMSO ranging from 100 mM to 0.001 mM and DMSO only controls are included. The compound/DMSO dilutions are further diluted 1:250 in DMEM+10% FBS, and 12.5 μL of these dilutions are added in triplicates to cells of both treatment arms (with and without IFNγ). Compounds are only dosed in the inner 240 wells, avoiding the outer 2-well perimeter of the plate to minimize edge effects. Finally, the plate is loaded into an IncuCyte® S3 Live Cell Analysis System (Essen Bioscience-Sartorius, Ann Arbor, MI) maintained in a 37° C.+5% CO2 incubator, allowed to equilibrate for 2 hours, and treated for 48 hours. MHC levels are measured by flow cytometry using a FITC anti-mouse H-2kb antibody (clone AF6-88.5), and levels are normalized based on DMSO/with IFNγ control. Table 7 below summarizes the percentage in MHC expression in cells treated with or without compounds disclosed herein at a specified concentration.

| Compound | IC50 (PTPN2) [nM] | activation at 3 µM [1] [%] |
| --- | --- | --- |
| CC(C)CCNc1ccc2cc(O)c(N3CC(=O)NS3(=O)=O)c(F)c2n1 [Compound 117] | ≤ 1000 | > 10 |
| CC(C)CCOc1ccc2cc(O)c(N3CC(=O)NS3(=O)=O)c(F)c2n1 [Compound 135, 5-(8-fluoro-6-hydroxy-2-(isopentyloxy)quinolin-7-yl)-1,2,5-thiadiazolidin-3-one 1,1-dioxide] | ≤ 1000 | > 10 |
| O=C1CN(c2c(O)cc3ccc(OCC4CCS(=O)(=O)CC4)nc3c2F)S(=O)(=O)N1 [Compound 143] | ≤ 1000 | > 10 |
| CNc1ccc2cc(O)c(N3CC(=O)NS3(=O)=O)c(F)c2n1 [Compound 153] | ≤ 1000 | > 10 |
| COc1ccc2cc(O)c(N3CC(=O)NS3(=O)=O)c(F)c2n1 [Compound 154] | ≤ 1000 | > 10 |
| CN1CCCC(COc2ccc3cc(O)c(N4CC(=O)NS4(=O)=O)c(F)c3n2)C1 (centres unmarked) [Compound 176] | ≤ 1000 | > 10 |
| CN(C)CCOc1ccc2cc(O)c(N3CC(=O)NS3(=O)=O)c(F)c2n1 [Compound 178] | ≤ 1000 | > 10 |
